In one assay the target is T1, HDAC1 (Homo sapiens, UniProt Q13547).
T1 construct: purchased Enzolifesciences BML-AK511
Description: HDAC enzyme activity inhibition (in vitro), HDAC1 Fluorimetric Drug Discovery Assay Kit. In kind it is biochemical. As to conditions: samples at 100, 1000 and 10000 nM; 37° C. 60 minutes; fluorescence Ex 390, Em 460; read-out: HDAC1 IC50. The essentials:
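Each sample reacted with enzyme for 60 min at 37° C before a 30-min developer step at the same temperature. HDAC1 doses spanned 100 to 10000 nM. Fluorescent signal was read at Ex 390/Em 460.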

The next assay concerns the target T2, HDAC6 human recombinant (Homo sapiens, UniProt Q9UBN7).
T2 construct: purchased Calbiochem 382180
T2 sequence (Q9UBN7 1-1215): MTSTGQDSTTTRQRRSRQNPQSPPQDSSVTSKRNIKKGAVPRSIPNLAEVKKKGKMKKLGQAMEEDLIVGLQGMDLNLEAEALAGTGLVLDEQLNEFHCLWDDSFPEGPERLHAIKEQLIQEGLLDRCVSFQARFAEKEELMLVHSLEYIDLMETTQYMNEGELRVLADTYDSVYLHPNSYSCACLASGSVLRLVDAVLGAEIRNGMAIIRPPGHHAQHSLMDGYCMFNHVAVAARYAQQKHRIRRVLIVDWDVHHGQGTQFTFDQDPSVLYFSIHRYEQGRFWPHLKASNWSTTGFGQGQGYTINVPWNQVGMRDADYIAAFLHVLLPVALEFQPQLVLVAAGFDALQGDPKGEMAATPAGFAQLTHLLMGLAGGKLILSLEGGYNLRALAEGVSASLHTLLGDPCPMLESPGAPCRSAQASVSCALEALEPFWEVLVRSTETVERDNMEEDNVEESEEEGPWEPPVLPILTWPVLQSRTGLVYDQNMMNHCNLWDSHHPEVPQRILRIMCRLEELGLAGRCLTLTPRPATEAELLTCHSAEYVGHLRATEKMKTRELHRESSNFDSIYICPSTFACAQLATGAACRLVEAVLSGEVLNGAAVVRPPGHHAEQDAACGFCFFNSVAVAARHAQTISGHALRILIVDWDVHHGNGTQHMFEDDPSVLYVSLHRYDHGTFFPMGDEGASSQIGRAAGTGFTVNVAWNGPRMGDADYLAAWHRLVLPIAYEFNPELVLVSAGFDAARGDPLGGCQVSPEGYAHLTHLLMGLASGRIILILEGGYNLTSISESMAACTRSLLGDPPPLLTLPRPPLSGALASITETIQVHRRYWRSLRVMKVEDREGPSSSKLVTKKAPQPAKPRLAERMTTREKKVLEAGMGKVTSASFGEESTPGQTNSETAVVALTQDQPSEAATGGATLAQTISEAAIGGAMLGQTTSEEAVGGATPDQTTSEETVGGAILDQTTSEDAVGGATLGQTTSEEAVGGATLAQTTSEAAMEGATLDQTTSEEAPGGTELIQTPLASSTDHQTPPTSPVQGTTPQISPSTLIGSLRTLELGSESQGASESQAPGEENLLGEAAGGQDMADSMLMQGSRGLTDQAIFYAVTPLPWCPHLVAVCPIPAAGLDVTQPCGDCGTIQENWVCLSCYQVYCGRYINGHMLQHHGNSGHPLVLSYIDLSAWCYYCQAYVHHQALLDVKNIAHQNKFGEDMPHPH
Put plainly: HDAC enzyme activity inhibition (in vitro), HDAC6 assay. In kind it is biochemical. As to conditions: samples at 0.1, 1, 10, 100 and 1000 nM; 37° C. 60 minutes; fluorescence Ex 390, Em 460; read-out: HDAC6 IC50. An outline of the steps:
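Fluorescence (Ex 390, Em 460) read after a 37° C, 60 min enzyme reaction and a further 30 min developer step at 37° C. Uses recombinant human HDAC6; HDAC1 arm dosed at 100, 1000, 10000 nM.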

Structures are written as SMILES.

The text below walks through data of patent US20230092890A1, “1, 3, 4-Oxadiazole derivative compounds as histone deacetylase 6 inhibitor, and the pharmaceutical composition comprising the same” (Chong Kun Dang Pharmaceutical Corp., priority 2019, published 2023).

T1 sequence (Q13547 whole entry): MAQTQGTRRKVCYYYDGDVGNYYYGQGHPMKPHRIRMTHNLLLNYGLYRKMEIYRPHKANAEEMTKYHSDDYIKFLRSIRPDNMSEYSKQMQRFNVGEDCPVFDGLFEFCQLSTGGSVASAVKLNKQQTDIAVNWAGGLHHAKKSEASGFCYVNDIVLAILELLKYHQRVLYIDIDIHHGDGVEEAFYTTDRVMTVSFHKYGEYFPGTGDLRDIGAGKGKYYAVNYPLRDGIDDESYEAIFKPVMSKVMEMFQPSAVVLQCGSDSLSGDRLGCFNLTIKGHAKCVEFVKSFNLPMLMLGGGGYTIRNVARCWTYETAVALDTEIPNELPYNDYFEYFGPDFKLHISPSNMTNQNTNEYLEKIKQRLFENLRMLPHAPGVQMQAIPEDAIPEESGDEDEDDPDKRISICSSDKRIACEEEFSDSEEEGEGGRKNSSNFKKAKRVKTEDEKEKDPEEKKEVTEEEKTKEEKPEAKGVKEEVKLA

The IC50 is the midpoint of a concentration-inhibition curve. Take `Cn1c(=O)n(Cc2ccc(-c3nnc(C(F)F)o3)cn2)c2cc(F)c(Br)cc21` [Compound 147, 5-bromo-1-((5-(5-(difluoromethyl)-1,3,4-oxadiazole-2-yl)pyridine-2-yl)methyl)-6-fluoro-3-methyl-1,3-dihydro-2H-benzo[d]imidazole-2-one]: the values for the concentration for half-maximal inhibition (IC50) at HDAC1 and at HDAC6 human recombinant were over 10000 nM and 15 nM, respectively.
On to `Cn1c(=O)n(Cc2ccc(-c3nnc(C(F)F)o3)cc2F)c2cc(F)c(Br)cc21` [Compound 148, 5-bromo-1-(4-(5-(difluoromethyl)-1,3,4-oxadiazole-2-yl)-2-fluorobenzyl)-6-fluoro-3-methyl-1,3-dihydro-2H-benzo[d]imidazole-2-one], for which the values for the half-inhibitory concentration (IC50) at HDAC1 and on HDAC6 human recombinant were over 10000 nM and 61 nM, respectively.
As to `CN1CCC(n2c(=O)n(Cc3ccc(-c4nnc(C(F)F)o4)cn3)c3cc(F)c(Br)cc32)CC1` [Compound 149, 5-bromo-1-((5-(5-(difluoromethyl)-1,3,4-oxadiazole-2-yl)pyridine-2-yl)methyl)-6-fluoro-3-(1-methylpiperidine-4-yl)-1,3-dihydro-2H-benzo[d]imidazole-2-one], the values for the IC50 at HDAC1 and at HDAC6 human recombinant were over 10000 nM and 40 nM, respectively.
On to `CN1CCC(n2c(=O)n(Cc3ccc(-c4nnc(C(F)F)o4)cn3)c3cc(F)c(-c4ccoc4)cc32)CC1` [Compound 150, 1-((5-(5-(difluoromethyl)-1,3,4-oxadiazole-2-yl)pyridine-2-yl)methyl)-6-fluoro-5-(furan-3-yl)-3-(1-methylpiperidine-4-yl)-1,3-dihydro-2H-benzo[d]imidazole-2-one], for which the results for the IC50 at HDAC1 and on HDAC6 human recombinant were over 10000 nM and 43 nM, respectively.
On the same counts, the results for `CN1CCC(n2c(=O)n(Cc3ccc(-c4nnc(C(F)F)o4)cn3)c3cc(F)c(-c4ccco4)cc32)CC1` [Compound 151, 1-((5-(5-(difluoromethyl)-1,3,4-oxadiazole-2-yl)pyridine-2-yl)methyl)-6-fluoro-5-(furan-2-yl)-3-(1-methylpiperidine-4-yl)-1,3-dihydro-2H-benzo[d]imidazole-2-one] are over 10000 nM and 55 nM.
On to `CN1CCC(n2c(=O)n(Cc3ccc(-c4nnc(C(F)F)o4)cn3)c3cc(F)c(-c4ccccc4F)cc32)CC1` [Compound 152, 1-((5-(5-(difluoromethyl)-1,3,4-oxadiazole-2-yl)pyridine-2-yl)methyl)-6-fluoro-5-(2-fluorophenyl)-3-(1-methylpiperidine-4-yl)-1,3-dihydro-2H-benzo[d]imidazole-2-one], for which the IC50 on HDAC1 was over 10000 nM; at HDAC6 human recombinant, 34 nM.
Consider `CN1CCC(n2c(=O)n(Cc3ccc(-c4nnc(C(F)F)o4)cn3)c3cc(F)c(-c4ccncc4)cc32)CC1` [Compound 153, 1-((5-(5-(difluoromethyl)-1,3,4-oxadiazole-2-yl)pyridine-2-yl)methyl)-6-fluoro-3-(1-methylpiperidine-4-yl)-5-(pyridine-4-yl)-1,3-dihydro-2H-benzo[d]imidazole-2-one], for which the IC50 on HDAC1 is over 10000 nM; on HDAC6 human recombinant, 16 nM.
On the same counts, the results for `CN1CCC(n2c(=O)n(Cc3ccc(-c4nnc(C(F)F)o4)cn3)c3cc(F)c(-c4cccc(F)c4)cc32)CC1` [Compound 154, 1-((5-(5-(difluoromethyl)-1,3,4-oxadiazole-2-yl)pyridine-2-yl)methyl)-6-fluoro-5-(3-fluorophenyl)-3-(1-methylpiperidine-4-yl)-1,3-dihydro-2H-benzo[d]imidazole-2-one] are over 10000 nM and 42 nM.
With `CN1CCC(n2c(=O)n(Cc3ccc(-c4nnc(C(F)F)o4)cn3)c3cc(F)c(-c4cccnc4)cc32)CC1` [Compound 155, 1-((5-(5-(difluoromethyl)-1,3,4-oxadiazole-2-yl)pyridine-2-yl)methyl)-6-fluoro-3-(1-methylpiperidine-4-yl)-5-(pyridine-3-yl)-1,3-dihydro-2H-benzo[d]imidazole-2-one], the values for the IC50 at HDAC1 and on HDAC6 human recombinant were over 10000 nM and 20 nM, respectively.
In the case of `CN1CCC(c2ccc3c(c2)n(C2CCN(C)CC2)c(=O)n3Cc2ccc(-c3nnc(C(F)F)o3)cc2F)CC1` [Compound 156, 1-(4-(5-(difluoromethyl)-1,3,4-oxadiazole-2-yl)-2-fluorobenzyl)-3,5-bis(1-methylpiperidine-4-yl)-1,3-dihydro-2H-benzo[d]imidazole-2-one], the IC50 at HDAC1 is over 10000 nM; on HDAC6 human recombinant, 102 nM.
On the same counts, the results for `CC(=O)N1CCC(c2ccc3c(c2)n(C2CCN(C)CC2)c(=O)n3Cc2ccc(-c3nnc(C(F)F)o3)cc2F)CC1` [Compound 157, 5-(1-acetylpiperidine-4-yl)-1-(4-(5-(difluoromethyl)-1,3,4-oxadiazole-2-yl)-2-fluorobenzyl)-3-(1-methylpiperidine-4-yl)-1,3-dihydro-2H-benzo[d]imidazole-2-one] are over 10000 nM and 159 nM.
On to `CN1CCC(n2c(=O)n(Cc3ccc(-c4nnc(C(F)F)o4)cc3F)c3ccc(C4CCN(S(C)(=O)=O)CC4)cc32)CC1` [Compound 158, 1-(4-(5-(difluoromethyl)-1,3,4-oxadiazole-2-yl)-2-fluorobenzyl)-3-(1-methylpiperidine-4-yl)-5-(1-(methylsulfonyl)piperidine-4-yl)-1,3-dihydro-2H-benzo[d]imidazole-2-one], for which the IC50 on HDAC1 was over 10000 nM; on HDAC6 human recombinant, 138 nM.
Take `CN1CCC(n2c(=O)n(Cc3ccc(-c4nnc(C(F)F)o4)cc3F)c3ccc(-c4cccc(F)c4)cc32)CC1` [Compound 159, 1-(4-(5-(difluoromethyl)-1,3,4-oxadiazole-2-yl)-2-fluorobenzyl)-5-(3-fluorophenyl)-3-(1-methylpiperidine-4-yl)-1,3-dihydro-2H-benzo[d]imidazole-2-one]: the results for the half-inhibitory concentration (IC50) at HDAC1 and at HDAC6 human recombinant were over 10000 nM and 71 nM, respectively.
Turning to `CN1CCC(n2c(=O)n(Cc3ccc(-c4nnc(C(F)F)o4)cc3F)c3ccc(-c4ccccc4F)cc32)CC1` [Compound 160, 1-(4-(5-(difluoromethyl)-1,3,4-oxadiazole-2-yl)-2-fluorobenzyl)-5-(2-fluorophenyl)-3-(1-methylpiperidine-4-yl)-1,3-dihydro-2H-benzo[d]imidazole-2-one], the IC50 at HDAC1 was over 10000 nM; on HDAC6 human recombinant it was 92 nM.
The matching figures for `CN1CCC(n2c(=O)n(Cc3ccc(-c4nnc(C(F)F)o4)cc3F)c3ccc(-c4ccncc4)cc32)CC1` [Compound 161, 1-(4-(5-(difluoromethyl)-1,3,4-oxadiazole-2-yl)-2-fluorobenzyl)-3-(1-methylpiperidine-4-yl)-5-(pyridine-4-yl)-1,3-dihydro-2H-benzo[d]imidazole-2-one]: over 10000 nM and 40 nM.
Turning to `CN1CCC(n2c(=O)n(Cc3ccc(-c4nnc(C(F)F)o4)cc3F)c3ccc(-c4ccoc4)cc32)CC1` [Compound 162, 1-(4-(5-(difluoromethyl)-1,3,4-oxadiazole-2-yl)-2-fluorobenzyl)-5-(furan-3-yl)-3-(1-methylpiperidine-4-yl)-1,3-dihydro-2H-benzo[d]imidazole-2-one], the results for the half-inhibitory concentration (IC50) at HDAC1 and on HDAC6 human recombinant were over 10000 nM and 39 nM, respectively.
On to `Cc1ccc(-c2ccc3c(c2)n(C2CCN(C)CC2)c(=O)n3Cc2ccc(-c3nnc(C(F)F)o3)cc2F)o1` [Compound 163, 1-(4-(5-(difluoromethyl)-1,3,4-oxadiazole-2-yl)-2-fluorobenzyl)-5-(5-methylfuran-2-yl)-3-(1-methylpiperidine-4-yl)-1,3-dihydro-2H-benzo[d]imidazole-2-one], for which the 50% inhibitory concentration (IC50) is over 10000 nM at HDAC1 and 91 nM on HDAC6 human recombinant.
